{
  "source": "paper PMC6251916",
  "about": "“CKD-506, a novel HDAC6-selective inhibitor, improves renal outcomes and survival in a mouse model of systemic lupus erythematosus” (Scientific Reports, 2018)",
  "key": {"HDAC1": {"target": "T1, HDAC1 (Homo sapiens, UniProt Q13547)", "T1 construct": "purchased Reaction biology Corp. (Malvern, PA, USA)", "T1 sequence (Q13547 whole entry)": "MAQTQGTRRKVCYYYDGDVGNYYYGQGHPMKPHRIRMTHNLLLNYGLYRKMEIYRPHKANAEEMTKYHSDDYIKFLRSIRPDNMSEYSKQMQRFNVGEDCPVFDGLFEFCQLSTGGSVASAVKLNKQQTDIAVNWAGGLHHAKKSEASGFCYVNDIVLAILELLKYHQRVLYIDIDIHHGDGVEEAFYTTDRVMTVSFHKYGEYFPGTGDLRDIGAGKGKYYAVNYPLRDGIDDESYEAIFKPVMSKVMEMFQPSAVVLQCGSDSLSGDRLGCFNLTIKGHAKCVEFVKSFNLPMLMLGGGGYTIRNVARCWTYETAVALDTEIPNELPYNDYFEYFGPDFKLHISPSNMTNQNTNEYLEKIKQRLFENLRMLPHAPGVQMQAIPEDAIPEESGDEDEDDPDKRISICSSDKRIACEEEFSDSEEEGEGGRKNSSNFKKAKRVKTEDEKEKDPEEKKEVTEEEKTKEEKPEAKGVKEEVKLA", "experiment": "HDAC panel assay (enzyme activity)", "assay_type": "biochemical", "protocol": "(§1) HDAC panel assay was performed by Reaction biology Corp. (Malvern, PA, USA) according to their validated protocol. To evaluate the potency and selectivity of CKD-506, HDAC panel assay was carried out by Reaction biology Corp. Briefly, the deacetylation reaction was performed in 50 mM Tris-HCl pH 8.0, 137 mM NaCl, 2.7 mM KCl, 1 mM MgCl2, and 1 mg/ml bovine serum albumin (BSA) with RHK-K(Ac)-AMC as substrate. After the reaction, a fluorescence signal (Ex. 360 nm/Em. 460 nm) developed (~30 min.) by addition of an equal volume of 2 mM nicotinamide, 16 mg/mL trypsin in 50 mM Tris-HCl pH 8.0, 137 mM NaCl, 2.7 mM KCl, and 1 mM MgCl2."}, "HDAC2": {"target": "T2, HDAC2 (Homo sapiens, UniProt Q92769)", "T2 construct": "purchased Reaction biology Corp. (Malvern, PA, USA)", "T2 sequence (Q92769 whole entry)": "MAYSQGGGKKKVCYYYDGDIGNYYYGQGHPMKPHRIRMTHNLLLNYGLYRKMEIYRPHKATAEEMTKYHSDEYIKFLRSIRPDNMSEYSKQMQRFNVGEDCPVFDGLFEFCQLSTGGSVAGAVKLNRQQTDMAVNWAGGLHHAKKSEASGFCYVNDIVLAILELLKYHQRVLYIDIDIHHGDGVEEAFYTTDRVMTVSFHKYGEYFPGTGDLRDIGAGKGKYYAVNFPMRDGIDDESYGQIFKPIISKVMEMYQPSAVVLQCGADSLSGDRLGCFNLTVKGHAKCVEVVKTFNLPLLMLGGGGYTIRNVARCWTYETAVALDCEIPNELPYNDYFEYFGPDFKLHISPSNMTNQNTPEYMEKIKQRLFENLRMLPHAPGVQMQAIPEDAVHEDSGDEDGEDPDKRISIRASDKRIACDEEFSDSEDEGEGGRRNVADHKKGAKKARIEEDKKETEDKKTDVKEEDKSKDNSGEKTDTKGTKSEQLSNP", "experiment": "HDAC panel assay (enzyme activity)", "assay_type": "biochemical", "protocol": "as §1"}, "HDAC7": {"target": "T3, HDAC7 (Homo sapiens, UniProt Q8WUI4)", "T3 construct": "purchased Reaction biology Corp. (Malvern, PA, USA)", "T3 sequence (Q8WUI4 1-952)": "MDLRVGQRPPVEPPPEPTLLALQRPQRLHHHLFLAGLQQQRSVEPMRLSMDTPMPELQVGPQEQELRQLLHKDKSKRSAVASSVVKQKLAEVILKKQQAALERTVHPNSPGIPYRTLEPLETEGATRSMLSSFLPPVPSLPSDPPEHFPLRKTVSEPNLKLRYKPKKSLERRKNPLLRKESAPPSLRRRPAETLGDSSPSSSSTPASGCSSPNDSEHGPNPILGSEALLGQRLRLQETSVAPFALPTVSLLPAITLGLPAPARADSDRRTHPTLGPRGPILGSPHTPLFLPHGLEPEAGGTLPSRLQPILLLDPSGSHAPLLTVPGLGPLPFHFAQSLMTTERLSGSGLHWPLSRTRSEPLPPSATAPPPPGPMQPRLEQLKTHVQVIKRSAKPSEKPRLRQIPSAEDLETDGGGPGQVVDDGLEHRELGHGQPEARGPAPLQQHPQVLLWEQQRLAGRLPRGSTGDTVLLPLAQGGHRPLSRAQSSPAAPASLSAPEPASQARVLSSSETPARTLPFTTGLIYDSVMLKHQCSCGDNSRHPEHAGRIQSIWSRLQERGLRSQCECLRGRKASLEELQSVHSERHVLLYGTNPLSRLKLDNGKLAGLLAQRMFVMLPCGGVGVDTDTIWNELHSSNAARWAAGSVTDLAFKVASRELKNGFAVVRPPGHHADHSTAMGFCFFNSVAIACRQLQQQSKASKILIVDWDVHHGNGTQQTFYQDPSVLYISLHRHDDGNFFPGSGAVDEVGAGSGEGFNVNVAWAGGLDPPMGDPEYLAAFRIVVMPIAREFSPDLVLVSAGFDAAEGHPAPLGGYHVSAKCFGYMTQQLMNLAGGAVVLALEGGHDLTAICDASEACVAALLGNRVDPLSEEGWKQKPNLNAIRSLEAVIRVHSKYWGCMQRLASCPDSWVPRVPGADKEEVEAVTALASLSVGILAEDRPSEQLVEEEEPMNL", "experiment": "HDAC panel assay (enzyme activity)", "assay_type": "biochemical", "protocol": "as §1"}, "other HDAC isoforms": {"tested_on": "other HDAC isoforms", "experiment": "HDAC panel assay (enzyme activity)", "assay_type": "biochemical", "protocol": "as §1"}, "NZB/W F1 female mice": {"tested_on": "NZB/W F1 female mice", "experiment": "Murine SLE model: BUN and anti-dsDNA antibody levels", "assay_type": "in vivo, mouse", "protocol": "Survival had been monitored until 42 weeks of age.\nBlood samples had been collected from mice under isoflurane anesthesia every 4 weeks (at 24, 28, 32, 36, 40 weeks of age and autopsy), and the obtained serum samples had been kept at −70 °C until the analysis."}, "[1]": {"tested_on": "THP1-Blue ISG human monocyte cell line", "experiment": "cGAMP induced IFN promoter activity reporter assay (IRF-inducible SEAP)", "assay_type": "cell-based", "conditions": "3 μM; 10 μM cGAMP; 24hr; significant", "source_text": "Supplementary Figure 2. A representative gating scheme of the T cell subset and CD138+ […]\nTo analyze T helper subsets, splenocytes were stained with antibodies to CD4 and CD25 (FITC-conjugated anti-mouse CD4 and APC-conjugated anti-mouse CD25, BD Biosciences).\nCells were fixed and permeabilized prior to staining with Foxp3 (Tube 007), ROR-γt (Tube 008), T-bet (Tube 009), and GATA-3 (Tube 010) antibodies (PE-, BD Biosciences).\nThe splenocytes were stained with PerCP-Cy5.5-conjugated anti-mouse CD3e (PerCP-cy5.5-CD3e, eBioscience, San Diego, CA, USA), fluorescein isothiocyanate (FITC)-conjugated anti-mouse CD4 (FITC-CD4, BD Biosciences, San Jose, CA, USA), PE-cyanine7-conjugated anti-mouse CD8a (eBioscience), and APC-conjugated anti-mouse CD25 (Tube 011).\nUnstained control (no antibody, Tube 001), FITC control (FITC-conjugated anti-mouse CD4 only, Tube 002), APC control (APC-conjugated anti-mouse CD25 only, Tube 003), PE control (PE-conjugated anti-mouse CD138 (BD Bioscience) only, Tube 004), and PerCP-Cy5.5 CD3 control (PerCP-Cy5.5-conjugated anti-mouse CD3e only, Tube 005) were also used for gating. cGAMP induced IFN promoter activ ity\nSupplementary Figure 3. […]\nThe SEAP activity in the culture supernatant was measured with Flexstation (Molecular Devices, USA) after incubation with Quanti-Blue solution (InvivoGen, USA) for 15 min. […]"}, "[2]": {"set-up": "method as in EudraCT number: 2016-002816-42", "conditions": "ref EudraCT number: 2016-002816-42; cited from earlier work"}},
  "data": [
    {"substance": "CKD-506", "values": [
      {"measurement": "IC50", "setting": "HDAC1", "result": "2 to 5", "unit": "µM"},
      {"measurement": "IC50", "setting": "HDAC2", "result": "2 to 5", "unit": "µM"},
      {"measurement": "IC50", "setting": "HDAC7", "result": "2 to 5", "unit": "µM"},
      {"measurement": "inhibition of enzyme activity of other HDAC isoforms", "setting": "other HDAC isoforms", "result": "does not inhibit"},
      {"measurement": "Levels of BUN vs vehicle", "setting": "NZB/W F1 female mice; group CKD30, 40 weeks of age", "result": "significantly lower"},
      {"measurement": "Levels of BUN vs vehicle", "setting": "NZB/W F1 female mice; group CKD30, at autopsy", "result": "significantly lower"},
      {"measurement": "Levels of BUN vs vehicle", "setting": "NZB/W F1 female mice; group CKD50, 36 weeks of age", "result": "significantly lower"},
      {"measurement": "Levels of BUN vs vehicle", "setting": "NZB/W F1 female mice; group CKD50, 40 weeks of age", "result": "significantly lower"},
      {"measurement": "Levels of BUN vs vehicle", "setting": "NZB/W F1 female mice; group CKD50, at autopsy", "result": "significantly lower"},
      {"measurement": "cGAMP induced IFN promoter activity", "setting": "[1]", "result": "repressed"},
      {"measurement": "safety in phase I clinical trial", "setting": "[2]", "result": "did not reveal significant safety issues"}
    ]}
  ]
}
